# Several values for one entry are separate records, joined by “and”; a condition that tells them apart may be missing. Equal entries are not always repeated. Where a SMILES comes first, the peptide text is derived from it. [ ]: non-standard residue; d: D form.
# Columns and labels:
# [1] = tested on: B16-F1 murine melanoma cells; test: Intracellular cAMP in B16-F1 melanoma cells; type: cell-based; conditions: for cAMP levels (in words): peptide at 1 μg/ml; for EC50: B16-F1 cells, 10^-4-10^-11 M, 30 min, IBMX
# Protocol: B16-F1 (melanoma cell line) cells from American Type Culture Collection (Manassas, Va.) were seeded into flat bottom 96 well plates at 5×10^4/well and cultured overnight in DMEM (Cambrex, Walkersville, Md.) supplemented with 2 mM glutamine, antibiotics (100 U/ml penicillin and 100 […]) and 10% heat-inactivated fetal bovine serum (Invitrogen, Grand Island, N.Y.). […] Cells were lysed and intracellular cAMP levels were measured by an enzyme immunoassay kit (Amersham Biosciences, Piscataway, N.J.). Forskolin (Sigma, St. Louis, Mo.) at 100 μM served as positive controls.
# cAMP levels in B16-F1 melanoma cells after treatment with native α-MSH, RI α-MSH, or a scrambled control peptide were examined. The […] melanoma cell line expresses a high number of MCR1 receptors (3000-4000 receptors/cell) compared with macrophages cell lines which express only 100-200 receptors/cell. Therefore we selected to examine the effect of the RI α-MSH treatment on the melanoma cell line. Murine melanoma B16-F1 cells were treated with native α-MSH, RI α-MSH, or control scrambled peptide at concentrations 1 pg/ml-1 μg/ml. After 30 min, cells were lysed and intracellular cAMP was measured by an enzyme immunoassay. […] However, a higher concentration of RI α-MSH (100 ng/ml) was necessary to increase cAMP compared with native α-MSH which increased cAMP at a 10 pg/ml concentration. This difference in concentration of peptide necessary to increase cAMP levels may be the result of the binding affinity to the MCR1 receptor.
# Murine melanoma B16-F1 cells were treated with native α-MSH, RI α-MSH, scrambled peptide control, KPV, or alanine substituted peptides of RI α-MSH at 1 μg/ml (FIG. 7B). […] Peptides designated 810, 811, and 812 have alanine substitutions in the central core tetrapeptide sequence (D-Trp D-Arg D-Phe D-His region; AA 5-8) (variant disclosed in SEQ ID NO:2) proposed to be involved in native α-MSH binding to the melanocortin receptor and its biological activity. […] The residues in the core tetrapeptide (wrfh) (variant disclosed in SEQ ID NO:2) and to a lesser extent, the methionine 4 of RI-MSH are critical for binding to MC1R.
# B16-F1 murine melanoma cells were cultured into 96 well plates 5×10^4 cells/well overnight in media with L-glutamine and pen/strep and FBS. Media was removed and new media with IBMX was added to the cells for 1 hr. Cells were then treated with RI α-MSH, or RI α-MSH peptide analogs (890, 891, 892, 893, 894 or 895). Cells were lysed after 30 min using a cAMP assay kit and supernatant were used in the assay. Forskolin at 10 μM served as positive controls.
# Intracellular cAMP was measured using a cAMP competition Assay Kit (Amersham Biosciences). All cell lysate samples were diluted 1:100 for analysis.
# Murine melanoma B16-F1 cells were treated with RI α-MSH, or RI α-MSH analogs (869, 872, 880, 878, 886 and 890-895) at a concentration range of 10^−4-10^−11 M. cAMP levels from cells treated with RI α-MSH, or RI α-MSH analogs. […] See FIG. 22 for graphical data and Table 2 for EC50 data.
# MC1R = MC1R (Homo sapiens, UniProt Q01726); test: Competitive binding with 125I-NDP-MSH, HEK293 membrane preparations, MC1R; conditions: for Ki: Ki MC1R, competition with 125I-NDP-MSH;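 as to all read-outs here: Read-out: receptor-bound radioligand retained by filtration and counted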
# Protocol: (§1) Binding analysis was done by Cerep laboratories (Paris, France) with coded samples.
# (§2) The mixtures were filtered through 96-well GFC filters (Millipore, Billerica, Mass.), washed 3 times with binding buffer without BSA, dried and counted.
# (§3) A competitive binding assay using a MCR panel including MCR 1, 3, 4, and 5 was performed.
# MC3R = MC3R (Homo sapiens, UniProt P41968); test: Competitive binding with 125I-NDP-MSH, HEK293 membrane preparations, MC3R
# Protocol: as §1, §2, §3
# MC5R = MC5R (Homo sapiens, UniProt P33032); test: Competitive binding with 125I-NDP-MSH, HEK293 membrane preparations, MC5R; conditions: Ki MC5R, competition with 125I-NDP-MSH; cells noted in μM
# Protocol: as §1, §2, §3
# C57BL/6 mice = test: MOG35-55 induced EAE model; type: in vivo; conditions: 2 mg/kg
# MC4R = MC4R (Homo sapiens, UniProt P32245); test: Competitive binding with 125I-NDP-MSH, HEK293 membrane preparations, MC4R
# Sequence of MC4R (P32245 whole entry): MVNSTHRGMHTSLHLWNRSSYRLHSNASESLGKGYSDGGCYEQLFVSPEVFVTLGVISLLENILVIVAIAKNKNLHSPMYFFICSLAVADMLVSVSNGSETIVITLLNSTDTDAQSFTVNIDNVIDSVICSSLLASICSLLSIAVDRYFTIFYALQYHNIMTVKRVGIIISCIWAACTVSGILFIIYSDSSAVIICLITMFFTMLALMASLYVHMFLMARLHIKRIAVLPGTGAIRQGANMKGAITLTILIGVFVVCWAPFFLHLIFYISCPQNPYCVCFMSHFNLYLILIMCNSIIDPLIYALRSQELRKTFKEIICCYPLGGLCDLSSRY
# Protocol: as §1, §2, §3
# Sequence of MC3R (P41968 whole entry): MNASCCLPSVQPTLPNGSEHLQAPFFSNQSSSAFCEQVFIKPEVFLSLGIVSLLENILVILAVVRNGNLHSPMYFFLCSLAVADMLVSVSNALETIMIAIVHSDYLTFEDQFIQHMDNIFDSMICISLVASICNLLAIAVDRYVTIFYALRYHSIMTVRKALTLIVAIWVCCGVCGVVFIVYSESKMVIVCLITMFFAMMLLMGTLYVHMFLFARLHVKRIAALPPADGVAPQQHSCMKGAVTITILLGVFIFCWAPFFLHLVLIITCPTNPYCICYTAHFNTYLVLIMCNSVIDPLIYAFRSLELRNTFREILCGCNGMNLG
# Sequence of MC1R (Q01726 whole entry): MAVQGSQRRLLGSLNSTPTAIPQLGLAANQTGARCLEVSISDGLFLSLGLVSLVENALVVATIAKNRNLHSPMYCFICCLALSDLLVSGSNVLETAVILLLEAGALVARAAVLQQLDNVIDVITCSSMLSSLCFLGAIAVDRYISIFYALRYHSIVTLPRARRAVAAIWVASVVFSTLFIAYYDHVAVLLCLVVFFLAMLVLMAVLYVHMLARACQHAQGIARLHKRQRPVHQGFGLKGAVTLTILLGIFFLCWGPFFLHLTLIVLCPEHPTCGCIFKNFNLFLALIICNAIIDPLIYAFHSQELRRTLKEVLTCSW
# Sequence of MC5R (P33032 whole entry): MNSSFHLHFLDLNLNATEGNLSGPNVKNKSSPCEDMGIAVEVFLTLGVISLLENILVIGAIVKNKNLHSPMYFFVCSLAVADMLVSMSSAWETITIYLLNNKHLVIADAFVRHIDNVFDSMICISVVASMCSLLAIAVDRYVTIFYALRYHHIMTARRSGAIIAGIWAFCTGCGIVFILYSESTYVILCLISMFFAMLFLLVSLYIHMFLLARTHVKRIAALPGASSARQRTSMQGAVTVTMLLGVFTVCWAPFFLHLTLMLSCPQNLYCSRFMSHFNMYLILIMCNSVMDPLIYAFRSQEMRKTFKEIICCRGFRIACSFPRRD
Ki (MC1R) [nM],EC50 [1] [nM],Ki (MC3R) [nM],Ki (MC5R) [µM],SMILES,cAMP levels (in words) [1],also measured
6.5,270,~28000,~27,"CSCC[C@@H](NC(=O)[C@@H](CCC(=O)O)NC(=O)[C@@H](Cc1c[nH]cn1)NC(=O)[C@@H](Cc1ccccc1)NC(=O)[C@@H](CCCNC(=N)N)NC(=O)[C@H](Cc1c[nH]c2ccccc12)NC(=O)CNC(=O)[C@@H](CCCCN)NC(=O)[C@H]1CCCN1C(=O)[C@H](NC(C)=O)C(C)C)C(=O)N[C@H](CO)C(=O)N[C@H](Cc1ccc(O)cc1)C(=O)N[C@H](CO)C(N)=O [compound 893, vpkGWrfhemsys]",,
380,212000,> 30000,> 30,"CSCC[C@@H](NC(=O)[C@@H](CCC(=O)O)NC(=O)[C@@H](Cc1c[nH]cn1)NC(=O)[C@@H](Cc1ccccc1)NC(=O)[C@H](CCCNC(=N)N)NC(=O)[C@@H](Cc1c[nH]c2ccccc12)NC(=O)CNC(=O)[C@@H](CCCCN)NC(=O)[C@H]1CCCN1C(=O)[C@H](NC(C)=O)C(C)C)C(=O)N[C@H](CO)C(=O)N[C@H](Cc1ccc(O)cc1)C(=O)N[C@H](CO)C(N)=O [compound 894, vpkGwRfhemsys]",,
0.51,21,,,"CSCC[C@H](NC(=O)[C@H](CO)NC(=O)[C@H](Cc1ccc(O)cc1)NC(=O)[C@H](CO)NC(C)=O)C(=O)N[C@@H](CCC(=O)O)C(=O)N[C@@H](Cc1c[nH]cn1)C(=O)N[C@@H](CC1CCCCC1)C(=O)N[C@@H](CCCNC(=N)N)C(=O)N[C@@H](Cc1c[nH]c2ccccc12)C(=O)NCC(=O)N[C@@H](CCCCN)C(=O)N1CCC[C@H]1C(=O)N[C@H](C(N)=O)C(C)C [compound 892, SYSMEH(L-Cha)RWGKPV]",,
1.9,,~15000,~4.5,"CCCCSCC[C@@H](NC(=O)[C@@H](CCC(=O)O)NC(=O)[C@@H](Cc1c[nH]cn1)NC(=O)[C@@H](CC1CCCCC1)NC(=O)[C@@H](CCCNC(=N)N)NC(=O)[C@@H](Cc1c[nH]c2ccccc12)NC(=O)CNC(=O)[C@@H](CCCCN)NC(=O)[C@H]1CCCN1C(=O)[C@H](NC(C)=O)C(C)C)C(=O)N[C@H](CO)C(=O)N[C@H](Cc1ccc(O)cc1)C(=O)N[C@H](CO)C(N)=O [compound 890, vpkGwr(D-Cha)he(d-Buthionine)sys]",,Ki (MC4R): ~14000 nM
19,300,~37000,~37,"CSCC[C@@H](NC(=O)[C@@H](CCC(=O)O)NC(=O)[C@H](Cc1c[nH]cn1)NC(=O)[C@@H](Cc1ccccc1)NC(=O)[C@@H](CCCNC(=N)N)NC(=O)[C@@H](Cc1c[nH]c2ccccc12)NC(=O)CNC(=O)[C@@H](CCCCN)NC(=O)[C@H]1CCCN1C(=O)[C@H](NC(C)=O)C(C)C)C(=O)N[C@H](CO)C(=O)N[C@H](Cc1ccc(O)cc1)C(=O)N[C@H](CO)C(N)=O [compound 895, vpkGwrfHemsys]",,

# The next lines start with the molecule.
SMILES,Ki (MC1R) [nM],EC50 [1] [nM],Ki (MC3R) [nM],Ki (MC5R) [µM],cAMP levels (in words) [1],also measured
"CSCC[C@@H](NC(=O)[C@@H](CCC(=O)O)NC(=O)[C@@H](C)NC(=O)[C@@H](Cc1ccccc1)NC(=O)[C@@H](CCCNC(=N)N)NC(=O)[C@@H](Cc1c[nH]c2ccccc12)NC(=O)CNC(=O)[C@@H](CCCCN)NC(=O)[C@H]1CCCN1C(=O)[C@H](NC(C)=O)C(C)C)C(=O)N[C@H](CO)C(=O)N[C@H](Cc1ccc(O)cc1)C(=O)N[C@H](CO)C(N)=O [compound 809, vpkGwrfaemsys] (Ac-[dV][dP][dK]G[dW][dR][dF][dA][dE][dM][dS][dY][dS]-NH2)",1200 ± 270,,,,reduction in cAMP accumulation,
"C[C@@H]1C[C@H]2[C@@H]3CCC4=CC(=O)C=C[C@]4(C)[C@@]3(F)[C@@H](O)C[C@]2(C)[C@@]1(O)C(=O)CO [Dexamethasone, dexamethasone, reference compound]",,,,,,maximum percent incidence of disease (C57BL/6 mice): 40%
"CSCC[C@@H](NC(=O)[C@@H](CCC(=O)O)NC(=O)[C@@H](Cc1c[nH]cn1)NC(=O)[C@@H](Cc1ccccc1)NC(=O)[C@@H](C)NC(=O)[C@@H](Cc1c[nH]c2ccccc12)NC(=O)CNC(=O)[C@@H](CCCCN)NC(=O)[C@H]1CCCN1C(=O)[C@H](NC(C)=O)C(C)C)C(=O)N[C@H](CO)C(=O)N[C@H](Cc1ccc(O)cc1)C(=O)N[C@H](CO)C(N)=O [compound 811, vpkGwafhemsys] (Ac-[dV][dP][dK]G[dW][dA][dF][dH][dE][dM][dS][dY][dS]-NH2)",,,,,no increase in cAMP activity,
"CSCC[C@@H](NC(=O)[C@@H](CCC(=O)O)NC(=O)[C@@H](CCCNC(=N)N)NC(=O)[C@@H](Cc1ccccc1)NC(=O)[C@@H](CCCNC(=N)N)NC(=O)[C@@H](Cc1c[nH]c2ccccc12)NC(=O)CNC(=O)[C@@H](CCCCN)NC(=O)[C@H]1CCCN1C(=O)[C@H](NC(C)=O)C(C)C)C(=O)N[C@H](CO)C(=O)N[C@H](Cc1ccc(O)cc1)C(=O)N[C@H](CO)C(N)=O [compound 872, vpkGwrfremsys]",13.5,2000,,,,
"CSCC[C@@H](NC(=O)[C@@H](CCC(=O)O)NC(=O)[C@@H](Cc1c[nH]cn1)NC(=O)[C@H](Cc1ccccc1)NC(=O)[C@@H](CCCNC(=N)N)NC(=O)[C@@H](Cc1c[nH]c2ccccc12)NC(=O)CNC(=O)[C@@H](CCCCN)NC(=O)[C@H]1CCCN1C(=O)[C@H](NC(C)=O)C(C)C)C(=O)N[C@H](CO)C(=O)N[C@H](Cc1ccc(O)cc1)C(=O)N[C@H](CO)C(N)=O [compound 884, vpkGwrFhemsys]",72,,> 30000,> 30,,"reduction in binding to MC1R, inversion of D-Phe to L-Phe in the RI sequence (MC1R; relative to RI-MSH): 20 fold"
"CC(=O)N[C@@H](C(=O)N1CCC[C@@H]1C(=O)N[C@H](CCCCN)C(=O)NCC(=O)N[C@H](Cc1c[nH]c2ccccc12)C(=O)N[C@H](CCCNC(=N)N)C(=O)N[C@H](Cc1ccccc1)C(=O)N[C@H](Cc1c[nH]cn1)C(=O)N[C@H](CCC(=O)O)C(=O)N[C@H](C)C(=O)N[C@H](CO)C(=O)N[C@H](Cc1ccc(O)cc1)C(=O)N[C@H](CO)C(N)=O)C(C)C [compound 807, vpkGwrfheasys] (Ac-[dV][dP][dK]G[dW][dR][dF][dH][dE][dA][dS][dY][dS]-NH2)",1400 ± 190,,,,reduction in cAMP accumulation,
"CSCC[C@@H](NC(=O)[C@@H](CCC(=O)O)NC(=O)[C@@H](Cc1c[nH]cn1)NC(=O)[C@@H](Cc1ccccc1)NC(=O)[C@@H](CCCNC(=N)N)NC(=O)[C@@H](C)NC(=O)CNC(=O)[C@@H](CCCCN)NC(=O)[C@H]1CCCN1C(=O)[C@H](NC(C)=O)C(C)C)C(=O)N[C@H](CO)C(=O)N[C@H](Cc1ccc(O)cc1)C(=O)N[C@H](CO)C(N)=O [compound 812, vpkGarfhemsys] (Ac-[dV][dP][dK]G[dA][dR][dF][dH][dE][dM][dS][dY][dS]-NH2)",,,,,no increase in cAMP activity,
"CSCC[C@@H](NC(=O)[C@@H](CCC(=O)O)NC(=O)[C@@H](Cc1c[nH]cn1)NC(=O)[C@@H](C)NC(=O)[C@@H](CCCNC(=N)N)NC(=O)[C@@H](Cc1c[nH]c2ccccc12)NC(=O)CNC(=O)[C@@H](CCCCN)NC(=O)[C@H]1CCCN1C(=O)[C@H](NC(C)=O)C(C)C)C(=O)N[C@H](CO)C(=O)N[C@H](Cc1ccc(O)cc1)C(=O)N[C@H](CO)C(N)=O [compound 810, vpkGwrahemsys]",,,,,no increase in cAMP activity,
"C=C[C@@]1(C)CC(=O)[C@]2(O)[C@@]3(C)[C@@H](O)CCC(C)(C)[C@@H]3[C@H](O)[C@H](OC(C)=O)[C@@]2(C)O1 [Forskolin, reference compound]",,,,,,"cAMP ([1]; 100 μM, positive control): 3455.39±406.6 and 3294.82±54.53"
